Columns and labels:
[1] = target: T1, KEAP1 wild type (KEAP1-WT) (Homo sapiens, UniProt Q14145); type: cell-based; settings: SF 5 μM, As 5 μM, bixin 40 μM; 16 h
T1 construct: expressed in transfected cells; host or cells: HaCaT human keratinocytes
Text: (§1) Since it has been shown previously that NRF2 activation by canonical inducers (including SF and tBHQ) depends on C (Cys)-151, a critical cysteine residue in KEAP1, the mechanistic involvement of KEAP1-C151 bixin-based NRF2 activation was examined. HaCaT cells were cotransfected with expression vectors for either KEAP1 wild type (KEAP1-WT) or a mutant KEAP1 (KEAP1-C151S; Cys-151 mutated to serine) along with ARE-firefly luciferase and Renilla luciferase reporters to assess NRF2 transcriptional activity (FIG. 3G). After exposure to SF (5 μM), As (sodium arsenite; 5 μM), or bixin (40 μM; all 16 h), NRF2 transcriptional activity was enhanced by all treatments in KEAP1-WT cells, whereas NRF2 activation by SF or bixin was abolished in KEAP1-C151S cells.
(§2) Transfection of cDNA was performed using Lipofectamine 3000 (Invitrogen) according to the manufacturer's instructions. Activation of NRF2 transcriptional activity was performed as previously published. Briefly, HaCaT cells were cotransfected with expression vectors for either KEAP1 wild type (KEAP1-WT) or KEAP1 with a mutation that generates a protein that contains a serine residue instead of a cysteine (KEAP1-C151S), along with NQO1-ARE firefly luciferase and Renilla luciferase reporters. At 24 h post-transfection, cells were left untreated or treated with SF (5 μM), As (5 μM), or bixin (40 μM) for 16 h. The cells were then lysed for analysis of the reporter gene activity using the Promega dual-luciferase reporter gene assay system.

[2] = target: T2, KEAP1-C151S (Homo sapiens, UniProt Q14145, C151S); type: cell-based; settings: SF 5 μM, As 5 μM, bixin 40 μM; 16 h
T2 construct: expressed in transfected cells; host or cells: HaCaT human keratinocytes
Text: as §1, §2

[3] = system: HaCaT keratinocytes; set-up: cytoprotection against 1O2-induced oxidative stress: dose or concentration left out as unconfirmed; settings: HaCaT
Description: Photodynamic induction of intracellular oxidative stress and its suppression by bixin pretreatment was analyzed by flow cytometry using 2′,7′-dichlorodihydrofluorescein diacetate (DCFH-DA) as a sensitive non-fluorescent precursor dye according to a published standard procedure [14]. HaCaT keratinocytes were pretreated with bixin (1 or 24 h) and then exposed to singlet oxygen generated by dye-sensitization as described earlier [14, 44]. In brief, toluidine blue 0 (TB) photosensitization was achieved using a ‘Sylvania 15 W Cool White’ light tube delivering visible light at an irradiance of 4.29 mW/cm^2. The irradiance in the visible region (400-700 nm) was determined using a spectroradiometer, Model 754 from Optronic Laboratories (Orlando, Fla.). Cells received visible radiation at a distance of 50 mm from the source through the polystyrene lids of cell culture dishes. For ^1O2 exposure, cells were washed with PBS and immediately exposed to the combined action of visible light (0.3 J/cm^2) and TB (3.3 μM) in PBS. Following 5 min incubation in the dark after irradiation, cells were washed with PBS. Cells were then incubated for 60 min in the dark (37° C., 5% CO2) with culture medium containing DCFH-DA (5 μg/mL final concentration). Cells were then washed with PBS, harvested by trypsinization, resuspended in 300 μl PBS, and analyzed by flow cytometry.

[4] = system: NRF2; assay: Cell-based NRF2 ubiquitination assay; set-up: species or system human; settings: HaCaT, bixin 40 μM or SF 5 μM with MG132 10 μM, 4 h
Description: In order to test if bixin-based NRF2 activation occurs through inhibition of KEAP1-mediated ubiquitination, a cell-based ubiquitination assay was performed in HaCaT cells cotransfected with expression vectors for NRF2 and HA-tagged ubiquitin (HA-Ub) (FIG. 3F). To this end, cells were either exposed to bixin (40 μM) or sulforaphane (SF; 5 μM, positive control) or left untreated, combined with proteasome inhibition (MG132; 10 μM, 4 h).
Experiments were performed according to previously published procedures. Cells were harvested in sample buffer (50 mM Tris-HCl [pH 6.8], 2% sodium dodecyl sulfate (SDS), 10% glycerol, 100 mM dithiothreitol (DTT), and 0.1% bromophenol blue), boiled and sonicated. Total cell lysates were resolved by SDS-PAGE and subjected to immunoblot analyses with the indicated antibodies. For the ubiquitination assay, cells were cotransfected with expression vectors for NRF2 and HA-tagged ubiquitin (HA-Ub). Cells were left untreated or treated with either 5 μM sulforaphane (SF) or 40 μM bixin along with 10 μM MG132 for 4 h. Cells were harvested in buffer containing 2% SDS, 150 mM NaCl, 10 mM Tris-HCl (pH 8.0), and 1 mM DTT and boiled immediately. […] The relative intensity of the bands was quantified using the ChemiDoc CRS gel documentation system and Quantity One software (BioRad).

T1 sequence (Q14145 whole entry, species assumed): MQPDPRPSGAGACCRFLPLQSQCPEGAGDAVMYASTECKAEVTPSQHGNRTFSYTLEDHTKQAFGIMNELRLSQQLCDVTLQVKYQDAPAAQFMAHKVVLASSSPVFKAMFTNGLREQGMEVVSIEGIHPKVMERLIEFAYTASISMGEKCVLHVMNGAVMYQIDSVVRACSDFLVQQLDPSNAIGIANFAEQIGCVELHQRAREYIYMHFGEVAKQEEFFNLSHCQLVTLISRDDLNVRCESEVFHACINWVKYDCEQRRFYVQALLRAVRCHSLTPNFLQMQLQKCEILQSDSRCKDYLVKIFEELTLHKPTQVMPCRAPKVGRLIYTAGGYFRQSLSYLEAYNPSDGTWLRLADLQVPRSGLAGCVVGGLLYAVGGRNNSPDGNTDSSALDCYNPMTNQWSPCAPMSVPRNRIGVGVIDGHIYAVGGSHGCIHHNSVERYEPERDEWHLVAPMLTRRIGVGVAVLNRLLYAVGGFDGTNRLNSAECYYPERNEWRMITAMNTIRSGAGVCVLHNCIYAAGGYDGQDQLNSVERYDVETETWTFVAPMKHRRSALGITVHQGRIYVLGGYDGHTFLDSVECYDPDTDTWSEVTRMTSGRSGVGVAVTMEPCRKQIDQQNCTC
T2 sequence (Q14145 whole entry C151S): as the sequence (Q14145 whole entry, species assumed) above, with C151S counted along it

Row | Compound | NRF2 transcriptional activity in KEAP1-WT cells [1] | NRF2 activation in KEAP1-C151S cells [2] | cytoprotection against 1O2-induced oxidative stress [3] | NRF2-ubiquitination versus untreated control [4]
1 | O=[As]O [As, sodium arsenite] | enhanced | equally effective | – | –
2 | [N-]=[N+]=[N-].[Na+] [NaN3, reference compound] | – | – | active only if present during visible light-driven dye sensitization | –
3 | C[S+]([O-])CCCCN=C=S (stereo not drawn) [SF, sulforaphane] | enhanced | abolished | – | inhibitory effects

Reference: US20180243190A1, “ACTIVATORS OF NRF2-DEPENDENT PHOTOPROTECTION AND RELATED USES THEREOF” (THE ARIZONA BOARD OF REGENTS ON BEHALF OF THE UNIVERSITY OF …, priority 2015, published 2018)
